ChEMBL document CHEMBL3885881, “DrugMatrix”

Species: Rattus norvegicus
Assay: DrugMatrix - Regimen: Daily Repeat
Format: toxicity, organism-based, Sprague-Dawley
Design: regimen Daily Repeat, gender Male, age 6-8 weeks
Details: in vivo, po, route oral GAVAGE, vehicle 100 % WATER; for ABSOLUTE BASOPHIL / ABSOLUTE EOSINOPHIL / ABSOLUTE LYMPHOCYTE / ABSOLUTE MONOCYTE / ABSOLUTE SEGMENTED NEUTROPHIL / BASOPHIL / EOSINOPHIL / ERYTHROCYTE COUNT / HEMATOCRIT / HEMOGLOBIN / LEUKOCYTE COUNT / LYMPHOCYTE / MEAN CORPUSCULAR HEMOGLOBIN / MEAN CORPUSCULAR HEMOGLOBIN CONCENTRATION / MEAN CORPUSCULAR VOLUME / MONOCYTE / NEUTROPHIL / NUCLEATED RED BLOOD CELLS / PLATELET COUNT: tissue Blood; for ALANINE AMINOTRANSFERASE / ALBUMIN / ALKALINE PHOSPHATASE / ASPARTATE AMINOTRANSFERASE / BLOOD UREA NITROGEN / CARBON DIOXIDE / CHLORIDE / CHOLESTEROL / CREATINE PHOSPHOKINASE / CREATININE / GLUCOSE / LACTATE DEHYDROGENASE / LIPASE / PHOSPHORUS / POTASSIUM / SODIUM / TOTAL BILIRUBIN / TOTAL PROTEIN / URIC ACID: tissue Plasma
[1] = 0 mg/kg, 72 h, dose level Control, time 3 day
[2] = 0 mg/kg, 120 h, dose level Control, time 5 day
[3] = 31 mg/kg, 72 h, dose level Low, time 3 day

Nc1ccc(S(=O)(=O)Nc2nccs2)cc1 [SULFATHIAZOLE]
ABSOLUTE BASOPHIL [1]: 0 CELLS/uL
ABSOLUTE EOSINOPHIL [1]: 0 CELLS/uL
ABSOLUTE LYMPHOCYTE [1]: 8482.5 CELLS/uL
ABSOLUTE MONOCYTE [1]: 63.83 CELLS/uL
ABSOLUTE SEGMENTED NEUTROPHIL [1]: 887 CELLS/uL
BASOPHIL [1]: 0%
EOSINOPHIL [1]: 0%
ERYTHROCYTE COUNT [1]: 5.49 x10E6/uL
HEMATOCRIT [1]: 34.5%
HEMOGLOBIN [1]: 13.33 G/DL
LEUKOCYTE COUNT [1]: 9.43 x10E3/uL
LYMPHOCYTE [1]: 90.17%
MEAN CORPUSCULAR HEMOGLOBIN [1]: 24.3 pg
MEAN CORPUSCULAR HEMOGLOBIN CONCENTRATION [1]: 38.63 G/DL
MEAN CORPUSCULAR VOLUME [1]: 62.88 fL
MONOCYTE [1]: 0.67%
NEUTROPHIL [1]: 9.17%
NUCLEATED RED BLOOD CELLS [1]: 0.67 /100WBC
PLATELET COUNT [1]: 1022.83 x10E3/uL
ALANINE AMINOTRANSFERASE [1]: 50.5 u/L
ALBUMIN [1]: 4.08 G/DL
ALKALINE PHOSPHATASE [1]: 368.33 u/L
ASPARTATE AMINOTRANSFERASE [1]: 87.5 u/L
BLOOD UREA NITROGEN [1]: 12.83 mg/dL
CARBON DIOXIDE [1]: 32.83 mmol/L
CHLORIDE [1]: 99.67 MEQ/L
CHOLESTEROL [1]: 79.67 mg/dL
CREATINE PHOSPHOKINASE [1]: 585 u/L
CREATININE [1]: 0.22 mg/dL
GLUCOSE [1]: 135.67 mg/dL
LACTATE DEHYDROGENASE [1]: 171 u/L
LIPASE [1]: 9.5 u/L
PHOSPHORUS [1]: 11.18 mg/dL
POTASSIUM [1]: 6.25 MEQ/L
SODIUM [1]: 144.87 MEQ/L
TOTAL BILIRUBIN [1]: 0.2 mg/dL
TOTAL PROTEIN [1]: 6.08 G/DL
URIC ACID [1]: 0.65 mg/dL
ABSOLUTE BASOPHIL [2]: 0 CELLS/uL
ABSOLUTE EOSINOPHIL [2]: 14.5 CELLS/uL
ABSOLUTE LYMPHOCYTE [2]: 7596.17 CELLS/uL
ABSOLUTE MONOCYTE [2]: 69.67 CELLS/uL
ABSOLUTE SEGMENTED NEUTROPHIL [2]: 503 CELLS/uL
BASOPHIL [2]: 0%
EOSINOPHIL [2]: 0.17%
ERYTHROCYTE COUNT [2]: 5.49 x10E6/uL
HEMATOCRIT [2]: 34.72%
HEMOGLOBIN [2]: 13.47 G/DL
LEUKOCYTE COUNT [2]: 8.18 x10E3/uL
LYMPHOCYTE [2]: 92.17%
MEAN CORPUSCULAR HEMOGLOBIN [2]: 24.57 pg
MEAN CORPUSCULAR HEMOGLOBIN CONCENTRATION [2]: 38.82 G/DL
MEAN CORPUSCULAR VOLUME [2]: 63.3 fL
MONOCYTE [2]: 1%
NEUTROPHIL [2]: 6.67%
NUCLEATED RED BLOOD CELLS [2]: 0 /100WBC
PLATELET COUNT [2]: 1141 x10E3/uL
ALANINE AMINOTRANSFERASE [2]: 48.33 u/L
ALBUMIN [2]: 4.07 G/DL
ALKALINE PHOSPHATASE [2]: 395.67 u/L
ASPARTATE AMINOTRANSFERASE [2]: 85.67 u/L
BLOOD UREA NITROGEN [2]: 15.83 mg/dL
CARBON DIOXIDE [2]: 31.33 mmol/L
CHLORIDE [2]: 100.83 MEQ/L
CHOLESTEROL [2]: 62.33 mg/dL
CREATINE PHOSPHOKINASE [2]: 248.33 u/L
CREATININE [2]: 0.2 mg/dL
GLUCOSE [2]: 135.67 mg/dL
LACTATE DEHYDROGENASE [2]: 141.33 u/L
LIPASE [2]: 9.5 u/L
PHOSPHORUS [2]: 10.73 mg/dL
POTASSIUM [2]: 6.07 MEQ/L
SODIUM [2]: 145.35 MEQ/L
TOTAL BILIRUBIN [2]: 0.22 mg/dL
TOTAL PROTEIN [2]: 6.12 G/DL
URIC ACID [2]: 0.63 mg/dL
ABSOLUTE BASOPHIL [3]: 0 CELLS/uL
ABSOLUTE EOSINOPHIL [3]: 0 CELLS/uL
ABSOLUTE LYMPHOCYTE [3]: 8271.67 CELLS/uL
ABSOLUTE MONOCYTE [3]: 54.33 CELLS/uL
ABSOLUTE SEGMENTED NEUTROPHIL [3]: 707.33 CELLS/uL
BASOPHIL [3]: 0%
EOSINOPHIL [3]: 0%
ERYTHROCYTE COUNT [3]: 5.15 x10E6/uL
HEMATOCRIT [3]: 32.73%
HEMOGLOBIN [3]: 12.87 G/DL
LEUKOCYTE COUNT [3]: 9.03 x10E3/uL
LYMPHOCYTE [3]: 91.33%
MEAN CORPUSCULAR HEMOGLOBIN [3]: 25.13 pg
MEAN CORPUSCULAR HEMOGLOBIN CONCENTRATION [3]: 39.33 G/DL
MEAN CORPUSCULAR VOLUME [3]: 63.97 fL
MONOCYTE [3]: 0.67%
NEUTROPHIL [3]: 8%
NUCLEATED RED BLOOD CELLS [3]: 0 /100WBC
PLATELET COUNT [3]: 928 x10E3/uL
ALANINE AMINOTRANSFERASE [3]: 54.67 u/L
ALBUMIN [3]: 4.13 G/DL
ALKALINE PHOSPHATASE [3]: 375.67 u/L
ASPARTATE AMINOTRANSFERASE [3]: 86.67 u/L
BLOOD UREA NITROGEN [3]: 13.67 mg/dL
CARBON DIOXIDE [3]: 32 mmol/L
CHLORIDE [3]: 100.33 MEQ/L
CHOLESTEROL [3]: 70.33 mg/dL
CREATINE PHOSPHOKINASE [3]: 289 u/L
CREATININE [3]: 0.36 mg/dL
GLUCOSE [3]: 128.67 mg/dL
LACTATE DEHYDROGENASE [3]: 147.33 u/L
LIPASE [3]: 11.67 u/L
PHOSPHORUS [3]: 11.83 mg/dL
POTASSIUM [3]: 6.53 MEQ/L
SODIUM [3]: 144.47 MEQ/L
TOTAL BILIRUBIN [3]: 0.2 mg/dL
TOTAL PROTEIN [3]: 6.07 G/DL
URIC ACID [3]: 0.8 mg/dL
